Data: article PMC7643960 (PLoS ONE, 2020)

How the values were obtained:
Type in all cases: cell-based, horse
[1] = system: primary EMM cells MelDuWi; experiment: crystal violet staining assay (CVS), proliferation; conditions: for IC50: mean (95% CI)
Description: (§1) All cells used for the experiments originate from different horses. Primary EMM cells (MelDuWi) and primary equine dermal fibroblasts (PriFi1, PriFi2) belong to the cell culture stock of the Clinic for Horses, University of Veterinary Medicine Hannover, Foundation, Hannover, Germany.
(§2) The proliferation assay was performed as published. […] Control cells were treated with medium only. The proportion of cells treated relative to untreated controls was determined by crystal violet staining and photometric absorbance measurement at the incubation time points mentioned above. Proliferation assays were performed in six to eight biological replicates with two technical replicates for each combination of cell type, incubation time and compound concentration.
(§3) Technical duplicates with a coefficient of variation of more than 20% were excluded from the cell assay analysis. […] Additional statistical data analysis was conducted with R 3.5.1.. A generalized additive model was fitted for each test (MTS and CVS) and cell type comparison (primary EMM cells and fibroblasts, and primary ES cells and fibroblasts) using the ‘mgcv’ package. Compound concentrations and the duration of incubation were modeled as tensor product smooth interacting with compound and cell line. Cell passage was added as a random effect. An appropriate distribution was selected by the visual inspection of residuals. The p-values were obtained by performing a Wald test for each parameter. Statistical significance was set at 0.05.

primary EMM cells eRGO1 [2] = experiment: crystal violet staining assay (CVS), proliferation; conditions: for IC50: mean (95% CI)
Description: as §1, §2, §3

primary ES cells sRGO1 [3] = experiment: crystal violet staining assay (CVS), proliferation; conditions: for IC50: mean (95% CI)
Description: as §1, §2, §3

primary ES cells sRGO2 = experiment: crystal violet staining assay (CVS), proliferation; conditions: for IC50: mean (95% CI)
Description: as §1, §2, §3

[4] = system: primary equine dermal fibroblasts PriFi1; experiment: crystal violet staining assay (CVS), proliferation; conditions: for IC50: mean (95% CI)
Description: as §1, §2, §3

[5] = system: primary equine dermal fibroblasts PriFi2; experiment: crystal violet staining assay (CVS), proliferation; conditions: for IC50: mean (95% CI)
Description: as §1, §2, §3

[6] = system: primary EMM cells MelDuWi; experiment: MTS cytotoxicity assay; conditions: for IC50: mean (95% CI)
Description: as §1
(§4) The cytotoxicity of the compounds was assessed by the CellTiter 96® AQueous One Solution Cell Proliferation Assay (MTS) (Promega GmbH, Mannheim, Germany) as reported. In brief, in order to reach cell confluence within 48 h, cells were seeded into 96-well plates in adequate densities (MelDuWi 30,000 cells/well; PriFi1, PriFi2, eRGO1 20,000 cells/well; sRGO1and sRGO2 15,000 cells/well). […] The formazan dye generated by the metabolic active cells was quantified photometrically. Cytotoxicity assays were performed in six to nine biological replicates with two technical replicates for each combination of cell type, incubation time and compound concentration.
as §3

primary EMM cells eRGO1 [7] = experiment: MTS cytotoxicity assay; conditions: for IC50: mean (95% CI)
Description: as §1, §4, §3

primary ES cells sRGO1 [8] = experiment: MTS cytotoxicity assay; conditions: for IC50: mean (95% CI)
Description: as §1, §4, §3

[9] = system: primary equine dermal fibroblasts PriFi1; experiment: MTS cytotoxicity assay; conditions: for IC50: mean (95% CI)
Description: as §1, §4, §3

[10] = system: primary equine dermal fibroblasts PriFi2; experiment: MTS cytotoxicity assay; conditions: for IC50: mean (95% CI)
Description: as §1, §4, §3

EMM cells MelDuWi = experiment: cell cycle investigation by flow cytometry (propidium iodide); conditions: double IC50 concentration
Description: (§5) Approximately 7.5 × 10^5 cells (MelDuWi) and 1.0 × 10^6 cells (PriFri2 and sRGO2) were seeded in 25 cm^2 cell culture flasks. […] Following 24 and 48 h of incubation, the cells were harvested by mild trypsinization and washed twice with phosphate-buffered saline (PBS) buffer (containing Mg^2+ and Ca^2+). Cells (1.0 × 10^6) were fixed with ethanol (70%, -20°C, for 24 h). After discarding the ethanol, the cells were washed in 1 mL PBS buffer (containing Mg^2+ and Ca^2+) and were centrifuged. The cell pellet was resuspended in 1 mL of staining PBS buffer (containing Mg^2+ and Ca^2+, 10 μg/mL RNASe [Thermofisher] and 15 μg/mL propidium iodide [Sigma-Aldrich, Munich, Germany]) and was incubated for 30 min at room temperature. Analyses were performed using the Attune® FACS machine (Life Technologies, Darmstadt, Germany) collecting data from the BL-2A channel. Doublet cells were excluded from the measurements by plotting BL-2A against BL-2H. A total of 20,000 events were collected for each cell cycle distribution. Each sample was measured in duplicate.

ES cells sRGO2 = experiment: as above; conditions: double IC50 concentration
Description: as §5

[11] = system: equine dermal fibroblasts PriFri2; experiment: as above; conditions: double IC50 concentration
Description: as §5

## C=C(C)[C@@H]1CC[C@]2(C(=O)OCC(N)(CO)CO)CC[C@]3(C)[C@H](CC[C@@H]4[C@@]5(C)CC[C@H](OC(C)=O)C(C)(C)[C@@H]5CC[C@]43C)[C@@H]12 [NVX-207, 3-acetyl-betulinic acid-2-amino-3-hydroxy-2-hydroxymethyl-propanoate]
[1]; 5 h
  IC50: 20 µM
[1]; 24 h
  IC50: 16 µM
[1]; 48 h
  IC50: 12 µM
[1]; 96 h
  IC50: 4 µM
[1]; after 48 h, CVS
  NVX-207 exceeded BBSs' antiproliferative effects: ~3 times
Primary EMM cells eRGO1 [2]; eRGO1, 5 h
  IC50: 10 µM
Primary EMM cells eRGO1 [2]; eRGO1, 24 h
  IC50: 5 µM
Primary EMM cells eRGO1 [2]; eRGO1, 48 h
  IC50: < 1 µM
Primary EMM cells eRGO1 [2]; eRGO1, 96 h
  IC50: < 1 µM
Primary EMM cells eRGO1 [2]; eRGO1, after 48 h, CVS
  NVX-207 exceeded BBSs' antiproliferative effects: about 25 times
Primary ES cells sRGO1 [3]; sRGO1, 5 h
  IC50: 7 µM
Primary ES cells sRGO1 [3]; sRGO1, 24 h
  IC50: 7 µM
Primary ES cells sRGO1 [3]; sRGO1, 48 h
  IC50: < 1 µM
Primary ES cells sRGO1 [3]; sRGO1, after 48 h, CVS
  NVX-207 exceeded BBSs' antiproliferative effects: about 23 times
Primary ES cells sRGO2; sRGO2, 5 h
  IC50: 6 µM
Primary ES cells sRGO2; sRGO2, 24 h
  IC50: < 1 µM
Primary ES cells sRGO2; sRGO2, 48 h
  IC50: < 1 µM
Primary ES cells sRGO2; sRGO2, after 48 h, CVS
  NVX-207 exceeded BBSs' antiproliferative effects: ~29 times
[4]; PriFi1, 5 h
  IC50: 11 µM
[4]; PriFi1, 24 h
  IC50: 4 µM
[4]; PriFi1, 48 h
  IC50: 2 µM
[4]; PriFi1, 96 h
  IC50: < 1 µM
[4]; PriFi1, after 48 h, CVS
  NVX-207 exceeded BBSs' antiproliferative effects: about 23 times
[5]; PriFi2, 5 h
  IC50: 14 µM
[5]; PriFi2, 24 h
  IC50: 8 µM
[5]; PriFi2, 48 h
  IC50: 7 µM
[5]; PriFi2, 96 h
  IC50: < 1 µM
[5]; PriFi2, after 48 h, CVS
  NVX-207 exceeded BBSs' antiproliferative effects: ~6 times
[6]; 24 h
  IC50: 18 µM
[6]; 48 h
  IC50: 15 µM
[6]; 96 h
  IC50: 8 µM
[6]; after 48 h, MTS
  times more cytotoxic than BBS: ~3 times
Primary EMM cells eRGO1 [7]; eRGO1, 5 h
  IC50: 9 µM
Primary EMM cells eRGO1 [7]; eRGO1, 24 h
  IC50: 7 µM
Primary EMM cells eRGO1 [7]; eRGO1, 48 h
  IC50: 4 µM
Primary EMM cells eRGO1 [7]; eRGO1, 96 h
  IC50: < 1 µM
Primary EMM cells eRGO1 [7]; eRGO1, after 48 h, MTS
  times more cytotoxic than BBS: ~8 times
Primary ES cells sRGO1 [8]; sRGO1, 5 h
  IC50: 9 µM
Primary ES cells sRGO1 [8]; sRGO1, 24 h
  IC50: 4 µM
Primary ES cells sRGO1 [8]; sRGO1, 48 h
  IC50: 2 µM
Primary ES cells sRGO1 [8]; sRGO1, after 48 h, MTS
  times more cytotoxic than BBS: about 11 times
[9]; PriFi1, 5 h
  IC50: 11 µM
[9]; PriFi1, 24 h
  IC50: 4 µM
[9]; PriFi1, 48 h
  IC50: 1 µM
[9]; PriFi1, 96 h
  IC50: < 1 µM
[9]; PriFi1, after 48 h, MTS
  times more cytotoxic than BBS: ~34 times
[10]; PriFi2, 5 h
  IC50: 20 µM
[10]; PriFi2, 24 h
  IC50: 7 µM
[10]; PriFi2, 96 h
  IC50: 4 µM
[10]; PriFi2, after 48 h, MTS
  times more cytotoxic than BBS: ~9 times
EMM cells MelDuWi; 24 h
  Cell cycle percentage G1/G0: 77,4%
  Cell cycle percentage M: 0,8%
  Cell cycle percentage S: 14,4%
  Cell cycle percentage SubG1: 7,1%
EMM cells MelDuWi; 48 h
  Cell cycle percentage G1/G0: 26,8%
  Cell cycle percentage M: 0,3%
  Cell cycle percentage S: 12,9%
ES cells sRGO2; sRGO2, 24 h
  Cell cycle percentage G1/G0: 76,6%
  Cell cycle percentage M: 6,4%
  Cell cycle percentage S: 15,8%
  Cell cycle percentage SubG1: 0,6%
ES cells sRGO2; sRGO2, 48 h
  Cell cycle percentage G1/G0: 64,5%
  Cell cycle percentage M: 3,9%
  Cell cycle percentage S: 13,7%
  Cell cycle percentage SubG1: 17,1%
[11]; PriFri2, 24 h
  Cell cycle percentage G1/G0: 43,1%
  Cell cycle percentage M: 1,3%
  Cell cycle percentage S: 10,8%
  Cell cycle percentage SubG1: 44,1%
[11]; PriFri2, 48 h
  Cell cycle percentage G1/G0: 14,8%
  Cell cycle percentage M: 0,1%
  Cell cycle percentage S: 2,9%
  Cell cycle percentage SubG1: 81,9%
